Earlier results, collected in PMC10505172, “Discovery and pharmacophoric characterization of chemokine network inhibitors using phage-display, saturation mutagenesis and computational modelling” (Nature Communications, 2023).

Tested on: CCL5
Conditions: cited from earlier work
Text: Peptides and peptidomimetics that mimic the activity of parental proteins have been successfully developed from several naturally occurring proteins into viable clinical therapeutics. Exemplars include the peptidomimetics captopril, eptifibatide and tirofiban, which are based on peptides derived from the snake venom toxins bradykinin-potentiating-peptide, barbourin and echistatin respectively. […] Inspired by these exemplars, by usi ...

Sequence: EEEDDYTAYAPLTAYFTN [Ev4Glu^14-Asn^31]
- inhibition of CCL5 function: inhibits CCL5 function
